Experimental data: PubChem BioAssay AID1996
Values after ≈ are worked out from the molar mass of the structure shown.

conditions: buffer; pH 7.4; 200.0 µM

First: O=C(NCC(=O)N1CCCC1)c1ccc(Br)o1
Second: FC(F)(F)c1ccccc1NC(=S)N1CCCC1
The solubility kinetic of the first is higher: greater than 45.2 µg/mL for the first, 33 µg/mL (≈ 120 µM) for the second.

CCOC(=O)C(=CNc1ccc(N2CCOCC2)cc1)C(=O)OCC and COC(=O)c1[nH]c2ccccc2c1NC(=O)C(C)N1CCOCC1 (stereo not given) cannot be ordered by solubility kinetic: greater than 52.3 µg/mL for the first, greater than 49.7 µg/mL for the second.

First: COc1ccc(CC(=O)Nc2ccccc2N2CCCC2)cc1OC
Second: COc1ccc(-c2cc(C(=O)N3CCCC3)no2)cc1OC
The solubility kinetic of the first is higher: greater than 51.1 µg/mL for the first, 43.8 µg/mL (≈ 145 µM) for the second.

First: COc1cc(OC)c(NC(=O)c2csc(C)c2)cc1Cl
Second: COc1cc(OC)c(OC)cc1CN1CCC(O)CC1.Cl
The solubility kinetic of the first is lower: less than 0.7 µg/mL for the first, greater than 47.7 µg/mL for the second.

Going from COc1ccc(S(=O)(=O)N2CCc3ccccc3C2)cc1 to COc1ccccc1S(=O)(=O)N1CCn2cccc2C1C (stereo not given), the solubility kinetic rises from 0.7 µg/mL (≈ 2.31 µM) to greater than 46 µg/mL.

Compared with CC(C)CN1CCN(Cc2cccn2-c2cccnc2)CC1CCO (stereo not given), O=C(CN1CCN(Cc2ccccc2)CC1)N/N=C/c1ccco1 is higher in solubility kinetic: 28.8 µg/mL (≈ 84.1 µM) for the first, greater than 49 µg/mL for the second.

Compared with Cc1ccc(N2C(=O)CSC2c2cccnc2)c(Cl)c1 (stereo not given), Cc1ccccc1N=C1NC(=O)/C(=C/c2cccnc2)S1 is lower in solubility kinetic: greater than 45.7 µg/mL for the first, 38.1 µg/mL (≈ 129 µM) for the second.

O=C(CN1C(=O)NC2(CCc3ccccc32)C1=O)c1cccs1 (stereo not given) and O=C(NCC(c1ccco1)N1CCCC1)c1cc(=O)[nH]c2ccccc12 (stereo not given) cannot be ordered by solubility kinetic: greater than 49 µg/mL for the first, greater than 52.7 µg/mL for the second.

CN(C)NC(=O)c1csnc1-c1c(Cl)cccc1Cl and Cc1ccc(Cl)c(Nc2ccccc2C(=O)[O-])c1Cl.[Na+] cannot be ordered by solubility kinetic: greater than 47.4 µg/mL for the first, greater than 47.7 µg/mL for the second.

Going from CCc1c(C)sc(NC(=S)Nc2nc(C)cc(C)n2)c1C(=O)OC to COC(=O)c1cc(C(=O)OC)n(Cc2ccc(C)cc2)c1C, the solubility kinetic rises from less than 0.2 µg/mL to 28.9 µg/mL (≈ 95.9 µM).

Going from Cc1nnc(N(C)C(=O)c2ccc3c(c2)OCO3)s1 to O=C(COC(=O)/C=C/c1ccc(F)cc1)NCc1ccc2c(c1)OCO2, the solubility kinetic falls from greater than 41.6 µg/mL to 4.9 µg/mL (≈ 13.7 µM).

First: CCN(CC(=O)NCc1cccs1)C(=O)CCOc1ccccc1
Second: CCOc1ccccc1C(=O)Nc1ccc(C(=O)c2ccccc2)cc1
The solubility kinetic of the first is higher: greater than 52 µg/mL for the first, less than 0.7 µg/mL for the second.

Going from NC(=NCCc1c[nH]c2ccccc12)NC(=O)c1ccc(F)cc1 to O=C(Nc1ncc2c(n1)-c1ccccc1OC2)c1ccc(F)cc1, the solubility kinetic falls from greater than 48.7 µg/mL to 6.1 µg/mL (≈ 19 µM).

Going from Cn1c(=O)c(C(=O)c2ccc(S(C)(=O)=O)c(Cl)c2Cl)c(O)c2ccccc21 to CCC(C)NC(=O)CN1C(=O)c2cccc3cccc1c23 (stereo not given), the solubility kinetic falls from greater than 63.9 µg/mL to 6.3 µg/mL (≈ 22.3 µM).

Going from CC(C)(C)C(=O)Nc1c(Cl)cccc1OC(F)(F)F to O=C(CSc1ncccc1C(=O)O)c1cccc(C(F)(F)F)c1, the solubility kinetic rises from 34.2 µg/mL (≈ 116 µM) to greater than 51.2 µg/mL.

Cc1cc(C(=O)NC2CCCCC2C)c2ccccc2n1 (stereo not given) and Cc1ccccc1-c1nnc(SC(C)C(=O)NC2CCCC2)o1 (stereo not given) cannot be ordered by solubility kinetic: greater than 42.4 µg/mL for the first, greater than 49.7 µg/mL for the second.

First: CCN(CC)S(=O)(=O)c1ccc(/C=C/C(=O)OCC(=O)NC(=O)C2COc3ccccc3O2)cc1 (stereo not given)
Second: COc1cc(/C=C/C(=O)OCC(=O)NCc2ccc3c(c2)OCO3)cc(OC)c1OC
The solubility kinetic of the first is 4.9-fold higher: 21 µg/mL (≈ 41.8 µM) for the first, 4.3 µg/mL (≈ 10 µM) for the second.

First: NC(=O)C1CCN(c2oc(-c3cccs3)nc2S(=O)(=O)c2ccc(Br)cc2)CC1
Second: Cc1ccc(-c2nc(C#N)c(N3CCC(C)CC3)o2)cc1
The solubility kinetic of the first is higher: 17.6 µg/mL (≈ 35.5 µM) for the first, less than 0.2 µg/mL for the second.

Compared with Cc1cccc(N2C(=O)C3CCCN3C2=S)c1 (stereo not given), CC(C)Oc1ccccc1C1NC(=O)CCC1[N+](=O)[O-] (stereo not given) is higher in solubility kinetic: 36.1 µg/mL (≈ 147 µM) for the first, greater than 41.7 µg/mL for the second.

Going from O=C1NC(=O)C(Cc2c[nH]c3ccccc23)N1 (stereo not given) to COC(=O)c1ccccc1NC(=O)CSc1nc2ncccc2[nH]1, the solubility kinetic falls from greater than 34.4 µg/mL to 8.7 µg/mL (≈ 25.4 µM).

Cn1c(N2CCOCC2)cc(=O)n(C)c1=O and Cn1cnc2c1c(=O)n(Cc1cccc(F)c1)c(=O)n2C are within 1.5-fold of each other in solubility kinetic: 29.3 µg/mL (≈ 130 µM) for the first, 30.8 µg/mL (≈ 107 µM) for the second.

First: CC(C)N(CCC#N)C(=O)Nc1ccc2c(c1)CCO2
Second: COc1cc(C#N)ccc1OCC(=O)NCCC1=CCCCC1
The solubility kinetic of the first is higher: greater than 41 µg/mL for the first, 3.7 µg/mL (≈ 11.8 µM) for the second.

O=C(COC(=O)c1cc2ccccc2cc1O)NC1CCCCC1 and CN(CC(=O)NC1CCCC1)S(=O)(=O)c1cccc(Cl)c1 are within 1.5-fold of each other in solubility kinetic: 5.9 µg/mL (≈ 18 µM) for the first, 7.6 µg/mL (≈ 23 µM) for the second.

Going from COc1ccc(/C=N/NC(=O)c2ccccc2O)cc1COc1ccccn1 to NC(=O)c1ccccc1NC(=O)c1ccc2ccccc2c1, the solubility kinetic falls from greater than 56.6 µg/mL to less than 0.3 µg/mL.

O=C(CSc1ncnc2ccccc12)NCCc1ccccc1 and CCOc1ccccc1NC(=O)c1ccc2nc[nH]c2c1 cannot be ordered by solubility kinetic: greater than 48.5 µg/mL for the first, greater than 42.2 µg/mL for the second.

First: Cc1ccc(CN(Cc2ccco2)C(=O)c2ccco2)cc1
Second: Brc1cccc(CNCc2ccncc2)c1
The solubility kinetic of the first is lower: 35.4 µg/mL (≈ 120 µM) for the first, greater than 41.6 µg/mL for the second.

First: CCn1c(=O)c2sccc2n(CC(=O)NC2CCCC2)c1=O
Second: CCOc1ccc(OCCCC(=O)N2CCN(S(=O)(=O)c3ccccc3C#N)CC2)cc1
The solubility kinetic of the first is 1.7-fold higher: 45.4 µg/mL (≈ 141 µM) for the first, 27.2 µg/mL (≈ 59.4 µM) for the second.

Going from Cc1cc(C)nc(SC(C)CNS(=O)(=O)c2ccccc2)n1 (stereo not given) to CC1CC(CC(=O)NNc2nc(-c3ccccc3)cs2)C(=O)O1 (stereo not given), the solubility kinetic rises from 45.9 µg/mL (≈ 136 µM) to greater than 49.7 µg/mL.

Going from N#Cc1c(N2CCCC2)nsc1-c1ccccc1 to O=C(/C=C/Nc1ccc(F)c(Cl)c1)c1ccccc1, the solubility kinetic rises from 0.4 µg/mL (≈ 1.57 µM) to 0.7 µg/mL (≈ 2.54 µM) (1.7-fold).

First: CC1=C(C(=O)N(C)C)C(c2ccc(C)s2)NC(=S)N1 (stereo not given)
Second: CC(C)c1ccc(CNc2ncc(Br)cn2)cc1
The solubility kinetic of the first is 78-fold higher: 31.4 µg/mL (≈ 106 µM) for the first, 0.4 µg/mL (≈ 1.31 µM) for the second.
